Results reported in publication PMC9078821, “The synthesis of axially disubstituted silicon phthalocyanines, their quaternized derivatives and first inhibitory effect on human cytosolic carbonic anhydrase isozymes hCA I and II” (RSC Advances, 2018).

Key:
[1] = target: T1, hCA II (Homo sapiens, UniProt P00918); assay: Esterase activity assay with 4-nitrophenylacetate as substrate, hCA II; format: biochemical; settings: 4-nitrophenylacetate substrate, pH 7.4, 25 °C, enzyme purified from human erythrocytes, errors 2–5%, three assays
T1 construct: from tissue; host or cells: human erythrocytes (fresh human blood)
Method: (§1) Erythrocytes were purified from fresh human blood obtained from the Blood Centre of the Research Hospital at Atatürk University. The blood samples were centrifuged at 1500 rpm for 15 min and the plasma and buffy coat were removed. The red cells were isolated and washed twice with 0.9% NaCl, and hemolyzed with 1.5 volumes of ice-cold water. The ghost and intact cells were removed by centrifugation at 20 000 rpm for 30 min at 4 °C. The pH of the hemolysate was adjusted to 8.7 with solid Tris.[27] […] The affinity gel was washed with 25 mM Tris–HCl/22 mM Na2SO4 (pH 8.7). The human carbonic anhydrase (hCA I and hCA II) isozymes were eluted with 1 M NaCl/25 mM Na2HPO4 (pH 6.3) and 0.1 M CH3COONa/0.5 M NaClO4 (pH 5.6), respectively. All procedures were performed at 4 °C.[27]
(§2) Carbonic anhydrase activity was assayed by following the change in absorbance at 348 nm of 4-nitrophenylacetate (NPA) to 4-nitrophenylate ion over a period of 3 min at 25 °C using a spectrophotometer (Shimadzu UV-1800) according to the method described by Verpoorte et al.[28] The enzymatic reaction, in a total volume of 3.0 mL, contained 1.4 mL 0.05 M Tris–SO4 buffer (pH 7.4), 1 mL 3 mM 4-nitrophenylacetate, 0.5 mL H2O and 0.1 mL enzyme solution. A reference measurement was obtained by preparing the same cuvette without enzyme solution. The inhibitory effects of compounds were examined. All compounds were tested in triplicate at each concentration used. Different inhibitor concentrations were used. Control cuvette activity in the absence of inhibitor was taken as 100%. For each inhibitor an activity (%)–[inhibitor] graphs were drawn.[29]

[2] = target: T2, hCA I (Homo sapiens, UniProt P00915); assay: Esterase activity assay with 4-nitrophenylacetate as substrate, hCA I; format: biochemical; settings: for IC50: 4-nitrophenylacetate substrate, pH 7.4, 25 °C, enzyme purified from human erythrocytes, errors 2–5%, three assays; for hCA I inhibition, result in words: ranking within the series
T2 construct: from tissue; host or cells: human erythrocytes (fresh human blood)
Method: as §1, §2

T2 sequence (P00915 whole entry): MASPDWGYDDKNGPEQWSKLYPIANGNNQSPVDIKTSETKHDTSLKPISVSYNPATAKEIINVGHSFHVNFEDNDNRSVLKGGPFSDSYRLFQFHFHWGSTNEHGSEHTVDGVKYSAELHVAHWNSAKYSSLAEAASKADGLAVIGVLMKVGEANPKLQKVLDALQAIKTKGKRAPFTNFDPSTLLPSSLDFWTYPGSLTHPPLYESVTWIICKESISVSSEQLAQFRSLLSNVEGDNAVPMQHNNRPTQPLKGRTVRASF

| IC50 [1] [µM] | IC50 [2] [µM] | Compound | hCA I inhibition, result in words [2] |
| --- | --- | --- | --- |
| 0.0762 | 0.084 | CCN(CC)c1cccc(OCCOCCO[Si]2(OCCOCCOc3cccc(N(CC)CC)c3)n3c4c5ccccc5c3N=C3N=C(N=c5c6ccccc6c(n52)=NC2=NC(=N4)c4ccccc42)c2ccccc23)c1 [ZM-5-Si] |  |
| 0.0363 | 0.0243 | CC[N+](C)(CC)c1cccc(OCCOCCO[Si]2(OCCOCCOc3cccc([N+](C)(CC)CC)c3)n3c4c5ccccc5c3N=C3N=C(N=c5c6ccccc6c(n52)=NC2=NC(=N4)c4ccccc42)c2ccccc23)c1 [ZM-5-SiQ] |  |
| 0.0544 | 0.071 | C[N+]1(CCOc2cc(CO[Si]3(OCc4cc(OCC[N+]5(C)CCOCC5)cc(OCC[N+]5(C)CCOCC5)c4)n4c5c6ccccc6c4N=C4N=C(N=c6c7ccccc7c(n63)=NC3=NC(=N5)c5ccccc53)c3ccccc34)cc(OCC[N+]3(C)CCOCC3)c2)CCOCC1 [ZM-1-SiQ] |  |

Second part, the molecule before the results:

| Compound | IC50 [1] [µM] | IC50 [2] [µM] | hCA I inhibition, result in words [2] |
| --- | --- | --- | --- |
| CN(C)c1ccc(/C=C/C(=O)c2ccc(O[Si]3(Oc4ccc(C(=O)/C=C/c5ccc(N(C)C)cc5)cc4)n4c5c6ccccc6c4N=C4N=C(N=c6c7ccccc7c(n63)=NC3=NC(=N5)c5ccccc53)c3ccccc34)cc2)cc1 [ZT-Si, Bis[(2E)-3-[4-(dimethylamino)phenyl]-1-(4-phenoxy)prop-2-en-1-one]phthalocyaninato silicon(IV)] | 0.0172 | 0.0178 | among the best inhibitors |
| c1ccc2c(c1)C1=NC2=Nc2c3ccccc3c3n2[Si](OCc2cc(OCCN4CCOCC4)cc(OCCN4CCOCC4)c2)(OCc2cc(OCCN4CCOCC4)cc(OCCN4CCOCC4)c2)n2c(c4ccccc4c2=NC2=NC(=N3)c3ccccc32)=N1 [ZM-1-Si] | 0.121 | 0.165 | moderately inhibited |
